Measured values as given in patent publication US20250025383A1, “EMOLLIENT COMPOSITION IN EMULSION FORM” (PIERRE FABRE MEDICAMENT, priority 2018, published 2025).

Experiments:
[1] = preservative not tested (nt) in emulsion; cited from earlier work
[2] = Measurement of consistency (TAXT+ texture analyser); type: physicochemical; conditions: ingredient added to glycerol/Vaseline/liquid paraffin emulsion
Procedure: The measurement of consistency is carried out at room temperature (around 20° C.) in a 250 mL glass jar filled to 200 g. The measurement is performed using a TAXT+type texture analyser (Swantec). The consistency of the product is represented by the maximum resistance force of the probe in the product, which is directly proportional to the measured mass. The consistency value is expressed in g.
• 250 g glass jar filled to 200 g • P25 steel cylinder
• Pre-speed: 4 mm/s • Speed: 8 mm/s • Post-speed: 8 mm/s • Displacement: 20 mm • Triggering threshold: 5 g
Fill the container (glass jar) without introducing air into the product.
Tap the jar so as to pack down the cream and to obtain the smoothest surface possible.
Maintain the jar closed […] before carrying out the measurement.

OB(O)O [Boric acid]
Comments/other aspects [1]: irritant

CCCCC(O)CO (stereo not shown) [1,2 hexanediol]
Effect on the consistency and/or the viscosity of the emulsion [2]: fluidification of the formula

CCCCC(CC)COCC(O)CO (stereo not shown) [ethylhexyl glycerin]
Effect on the consistency and/or the viscosity of the emulsion [2]: fluidification of the formula

O.O.O.O.O.O.O.O.O.O.[Na+].[Na+].[O-]B1OB2OB([O-])OB(O1)O2 [Sodium borate]
Comments/other aspects [1]: irritant
